The values below come from US8624040B2, “Substituted hydroxamic acids and uses thereof” (Millennium Pharmaceuticals, Inc., priority 2009, dated 2014).

By IC50 is commonly meant the concentration needed to halve the response being measured.

SMILES strings stand for the structures.

For this assay, the target named is T1, purified human HDAC6 (Homo sapiens, UniProt Q9UBN7).
T1 construct: purchased BPS Bioscience 5006
T1 sequence (Q9UBN7 1-1215): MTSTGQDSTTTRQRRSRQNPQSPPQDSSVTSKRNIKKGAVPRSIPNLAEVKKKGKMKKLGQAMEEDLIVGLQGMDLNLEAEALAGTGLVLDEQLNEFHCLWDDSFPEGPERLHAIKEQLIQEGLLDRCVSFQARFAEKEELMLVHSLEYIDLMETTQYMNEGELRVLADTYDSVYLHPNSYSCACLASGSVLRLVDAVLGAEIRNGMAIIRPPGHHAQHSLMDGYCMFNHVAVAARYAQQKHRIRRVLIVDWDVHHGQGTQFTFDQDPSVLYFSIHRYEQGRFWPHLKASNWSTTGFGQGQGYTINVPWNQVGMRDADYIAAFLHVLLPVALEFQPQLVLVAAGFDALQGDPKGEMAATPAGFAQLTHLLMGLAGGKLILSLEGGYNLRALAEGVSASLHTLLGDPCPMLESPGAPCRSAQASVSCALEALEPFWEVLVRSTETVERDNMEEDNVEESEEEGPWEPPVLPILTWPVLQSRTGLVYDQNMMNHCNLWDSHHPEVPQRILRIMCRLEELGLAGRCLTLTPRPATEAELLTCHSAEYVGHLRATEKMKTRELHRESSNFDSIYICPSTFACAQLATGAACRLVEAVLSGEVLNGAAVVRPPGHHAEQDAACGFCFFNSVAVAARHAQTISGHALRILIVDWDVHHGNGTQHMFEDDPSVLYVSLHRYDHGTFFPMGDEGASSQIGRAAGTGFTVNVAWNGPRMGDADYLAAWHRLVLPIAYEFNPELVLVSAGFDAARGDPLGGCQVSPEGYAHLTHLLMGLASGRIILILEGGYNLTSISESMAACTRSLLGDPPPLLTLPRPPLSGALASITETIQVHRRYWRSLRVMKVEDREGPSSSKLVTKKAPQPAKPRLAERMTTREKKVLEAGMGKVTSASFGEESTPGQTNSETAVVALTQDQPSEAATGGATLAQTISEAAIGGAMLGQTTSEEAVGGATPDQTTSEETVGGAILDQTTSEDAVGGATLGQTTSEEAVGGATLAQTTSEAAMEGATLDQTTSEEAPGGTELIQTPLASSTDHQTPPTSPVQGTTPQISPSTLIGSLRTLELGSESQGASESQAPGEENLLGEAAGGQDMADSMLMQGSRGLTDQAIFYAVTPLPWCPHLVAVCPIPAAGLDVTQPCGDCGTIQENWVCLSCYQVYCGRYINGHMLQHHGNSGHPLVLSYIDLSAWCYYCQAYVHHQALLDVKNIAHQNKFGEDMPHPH
The assay can be described thus: HDAC6 Enzyme Assay. The class given is biochemical. The settings on record: enzyme inhibition, substrate Ac-Arg-Gly-Lys(Ac)-AMC, 1 hour at 30° C. Here is the method:
To measure the inhibition of HDAC6 activity, purified human HDAC6 (BPS Bioscience; Cat. No. 5006) is incubated with substrate Ac-Arg-Gly-Lys(Ac)-AMC peptide (Bachem Biosciences; Cat. No. I-1925) for 1 hour at 30° C. in the presence of test compounds or vehicle DMSO control. The reaction is stopped with the HDAC inhibitor trichostatin A (Sigma; Cat. No. T8552) and the amount of Arg-Gly-Lys-AMC generated is quantitated by digestion with trypsin (Sigma; Cat. No. T1426) and subsequent measurement of the amount of AMC released using a fluorescent plate reader (Pherastar; BMG Technologies) set at Ex 340 nm and Em 460 nm. Concentration response curves are generated by calculating the fluorescence increase in test compound-treated samples relative to DMSO-treated controls, and enzyme inhibition (IC50) values are determined from those curves.
`CC(C)(C)C(=O)N1CCc2cc(C(=O)NO)sc2C1` [Compound 1, 6-(2,2-dimethylpropanoyl)-N-hydroxy-4,5,6,7-tetrahydrothieno[2,3-c]pyridine-2-carboxamide] showed a 50% inhibitory concentration (IC50) of less than 50 nM.

In turn, `O=C(NO)c1cc2c(s1)CN(C(=O)C1CCCCC1)CC2` [Compound 2, 6-(cyclohexylcarbonyl)-N-hydroxy-4,5,6,7-tetrahydrothieno[2,3-c]pyridine-2-carboxamide] gave an IC50 of less than 50 nM.

The molecule `CC1(C(=O)N2CCc3cc(C(=O)NO)sc3C2)CCCCC1` [Compound 3, N-hydroxy-6-[(1-methylcyclohexyl)carbonyl]-4,5,6,7-tetrahydrothieno[2,3-c]pyridine-2-carboxamide] registered an IC50 of less than 50 nM.

`CC(C)(C(=O)N1CCc2cc(C(=O)NO)sc2C1)c1ccc(Cl)cc1` [Compound 4, 6-[2-(4-chlorophenyl)-2-methylpropanoyl]-N-hydroxy-4,5,6,7-tetrahydrothieno[2,3-c]pyridine-2-carboxamide] displayed an IC50 of less than 50 nM.

`O=C(NO)c1cc2c(s1)CN(C(=O)c1ccsc1)CC2` [Compound 5, N-hydroxy-6-(3-thienylcarbonyl)-4,5,6,7-tetrahydrothieno[2,3-c]pyridine-2-carboxamide] returned a half-inhibitory concentration (IC50) of less than 50 nM.

Turning to `CCC(Oc1ccccc1)C(=O)N1CCc2cc(C(=O)NO)sc2C1` (stereo not shown) [Compound 6, N-hydroxy-6-(2-phenoxybutanoyl)-4,5,6,7-tetrahydrothieno[2,3-c]pyridine-2-carboxamide], the IC50 was less than 50 nM.

On to `COc1c(C(=O)N2CCc3cc(C(=O)NO)sc3C2)csc1Cl` [Compound 7, 6-[(5-chloro-4-methoxy-3-thienyl)carbonyl]-N-hydroxy-4,5,6,7-tetrahydrothieno[2,3-c]pyridine-2-carboxamide], for which the IC50 is less than 50 nM.

The molecule `O=C(NO)c1cc2c(s1)CN(C(=O)c1[nH]nc3c1CCCC3)CC2` [Compound 8, N-hydroxy-6-(4,5,6,7-tetrahydro-2H-indazol-3-ylcarbonyl)-4,5,6,7-tetrahydrothieno[2,3-c]pyridine-2-carboxamide] gave a 50% inhibitory concentration (IC50) of less than 50 nM.

Molecule `CCC(C(=O)N1CCc2cc(C(=O)NO)sc2C1)(c1ccccc1)c1ccccc1` [Compound 9, 6-(2,2-diphenylbutanoyl)-N-hydroxy-4,5,6,7-tetrahydrothieno[2,3-c]pyridine-2-carboxamide] registered an IC50 of 50 to 100 nM.

On to `O=C(NO)c1cc2c(s1)CN(C(=O)C(C1CCCCC1)C1CCCCC1)CC2` [Compound 10, 6-(dicyclohexylacetyl)-N-hydroxy-4,5,6,7-tetrahydrothieno[2,3-c]pyridine-2-carboxamide], for which the concentration for half-maximal inhibition (IC50) was in the range of 50 to 100 nM.

As for `Cc1nc(C(F)(F)F)c(C(=O)N2CCc3cc(C(=O)NO)sc3C2)s1` [Compound 11, N-hydroxy-6-{[2-methyl-4-(trifluoromethyl)-1,3-thiazol-5-yl]carbonyl}-4,5,6,7-tetrahydrothieno[2,3-c]pyridine-2-carboxamide], the 50% inhibitory concentration (IC50) is less than 50 nM.

With `Cc1ccc(OCC(=O)N2CCc3cc(C(=O)NO)sc3C2)c(C)c1` [Compound 12, 6-[(2,4-dimethylphenoxy)acetyl]-N-hydroxy-4,5,6,7-tetrahydrothieno[2,3-c]pyridine-2-carboxamide], the concentration for half-maximal inhibition (IC50) is more than 1000 nM.

Regarding `O=C(NO)c1cc2c(s1)CN(C(=O)C1(c3ccc(F)cc3Cl)CCCC1)CC2` [Compound 13, 6-{[1-(2-chloro-4-fluorophenyl)cyclopentyl]carbonyl}-N-hydroxy-4,5,6,7-tetrahydrothieno[2,3-c]pyridine-2-carboxamide], the IC50 was less than 50 nM.

`O=C(NO)c1cc2c(s1)CN(C(=O)C13CC4CC(CC(C4)C1)C3)CC2` [Compound 14, 6-[1-adamantylcarbonyl]-N-hydroxy-4,5,6,7-tetrahydrothieno[2,3-c]pyridine-2-carboxamide]: the 50% inhibitory concentration (IC50) was less than 50 nM.

`O=C(NO)c1cc2c(s1)CN(C(=O)C1CCCCN1S(=O)(=O)c1ccccc1)CC2` (stereo not shown) [Compound 15, N-hydroxy-6-{[1-(phenylsulfonyl)piperidin-2-yl]carbonyl}-4,5,6,7-tetrahydrothieno[2,3-c]pyridine-2-carboxamide]: the half-inhibitory concentration (IC50) fell in the range of 50 to 100 nM.

On to `Cc1oc(S(=O)(=O)N2CCCCC2)cc1C(=O)N1CCc2cc(C(=O)NO)sc2C1` [Compound 16, N-hydroxy-6-[2-methyl-5-(piperidin-1-ylsulfonyl)-3-furoyl]-4,5,6,7-tetrahydrothieno[2,3-c]pyridine-2-carboxamide], for which the half-inhibitory concentration (IC50) was less than 50 nM.

In the case of `O=C(NO)c1cc2c(s1)CN(C(=O)CC1c3ccccc3-c3ccccc31)CC2` [Compound 17, 6-(9H-fluoren-9-ylacetyl)-N-hydroxy-4,5,6,7-tetrahydrothieno[2,3-c]pyridine-2-carboxamide], the IC50 was more than 1000 nM.

For `O=C(NO)c1cc2c(s1)CN(S(=O)(=O)CC(c1ccccc1)c1ccccc1)CC2` [Compound 18, 6-[(2,2-diphenylethyl)sulfonyl]-N-hydroxy-4,5,6,7-tetrahydrothieno[2,3-c]pyridine-2-carboxamide], the half-inhibitory concentration (IC50) is less than 50 nM.

Regarding `CCCCS(=O)(=O)N1CCc2cc(C(=O)NO)sc2C1` [Compound 19, 6-(butylsulfonyl)-N-hydroxy-4,5,6,7-tetrahydrothieno[2,3-c]pyridine-2-carboxamide], the half-inhibitory concentration (IC50) is less than 50 nM.

`Cc1noc(C)c1S(=O)(=O)N1CCc2cc(C(=O)NO)sc2C1` [Compound 20, 6-[(3,5-dimethylisoxazol-4-yl)sulfonyl]-N-hydroxy-4,5,6,7-tetrahydrothieno[2,3-c]pyridine-2-carboxamide]: the IC50 is less than 50 nM.

Regarding `O=C(NO)c1cc2c(s1)CN(S(=O)(=O)c1ccc(C(F)(F)F)cc1)CC2` [Compound 21, N-hydroxy-6-{[4-(trifluoromethyl)phenyl]sulfonyl}-4,5,6,7-tetrahydrothieno[2,3-c]pyridine-2-carboxamide], the IC50 was less than 50 nM.

As to `O=C(NO)c1cc2c(s1)CN(Cc1ccc3c(c1)OCCCO3)CC2` [Compound 22, 6-(3,4-dihydro-2H-1,5-benzodioxepin-7-ylmethyl)-N-hydroxy-4,5,6,7-tetrahydrothieno[2,3-c]pyridine-2-carboxamide], the half-maximal inhibitory concentration (IC50) was less than 50 nM.

Regarding `O=C(NO)c1cc2c(s1)CN(Cc1ccc(-n3cccn3)cc1)CC2` [Compound 23, N-hydroxy-6-[4-(1H-pyrazol-1-yl)benzyl]-4,5,6,7-tetrahydrothieno[2,3-c]pyridine-2-carboxamide], the IC50 was less than 50 nM.

For the molecule `Cc1nn(-c2ccccc2)nc1CN1CCc2cc(C(=O)NO)sc2C1` [Compound 24, N-hydroxy-6-[(5-methyl-2-phenyl-2H-1,2,3-triazol-4-yl)methyl]-4,5,6,7-tetrahydrothieno[2,3-c]pyridine-2-carboxamide], the IC50 is less than 50 nM.

As for `O=C(NO)c1cc2c(s1)CN(Cc1cccc3nsnc13)CC2` [Compound 25, 6-(2,1,3-benzothiadiazol-4-ylmethyl)-N-hydroxy-4,5,6,7-tetrahydrothieno[2,3-c]pyridine-2-carboxamide], the IC50 is less than 50 nM.

Regarding `CC(C)(C)C(=O)N1CCc2sc(C(=O)NO)cc2C1` [Compound 26, 5-(2,2-dimethylpropanoyl)-N-hydroxy-4,5,6,7-tetrahydrothieno[3,2-c]pyridine-2-carboxamide], the IC50 is less than 50 nM.

`Cn1cccc1C(=O)N1CCc2sc(C(=O)NO)cc2C1` [Compound 27, N-hydroxy-5-[(1-methyl-1H-pyrrol-2-yl)carbonyl]-4,5,6,7-tetrahydrothieno[3,2-c]pyridine-2-carboxamide] yielded an IC50 of less than 50 nM.

On to `CC1(C(=O)N2CCc3sc(C(=O)NO)cc3C2)CCCCC1` [Compound 28, N-hydroxy-5-(1-methylcyclohexanecarbonyl)-4,5,6,7-tetrahydrothieno[3,2-c]pyridine-2-carboxamide], for which the 50% inhibitory concentration (IC50) is less than 50 nM.
